# Reference: US9204630B2, “Capsule formulation” (Syngenta Participations AG, priority 2005, dated 2015)
# Experiment: Screen of EC formulations for substances that photoprotect emamectin benzoate
# Assay type: physicochemical
# Set-up: key: #1 represents no improvement; #3 represents those photoprotectants that conferred a significant improvement in photostability
# Details: performance of the photostabiliser relative to the non-photostabilised EC; 2% w/w emamectin benzoate EC, photoprotectant to insecticide 1:1; deposits on glass irradiated in Suntest, HPLC-MS
# Method: The photoprotectant to be screened was either dissolved or dispersed in a simple Solvesso 200 based EC formulation containing 2% w/w emamectin benzoate, 10% w/w Soprophor BSU and 3% w/w phenyl sulfonate calx. The weight ratio of photoprotectant to insecticide was 1:1.
# The ECs were diluted in water to the typical field application rate of emamectin benzoate, 10 g ai/ha at a spray volume of 200 l/ha. 2 μl droplets were applied to clean glass microscope slides and allowed to dry prior to being irradiated in an Atlas XLS+ Suntest artificial sunlight simulator, which employs a filtered xenon light source providing a spectral energy distribution similar to natural outdoor exposure. After irradiation, deposits were removed from the glass slides by a solvent wash and quantified by high performance liquid chromatography (HPLC) with mass-spectrometric (MS) detection.
row,Compound,Screen Result
1,"Cc1cc(N=Nc2ccc(N=Nc3c(O)ccc4ccccc34)c(C)c2)ccc1O [Example 1O, 1-[[2-methyl-4-[(2-methylphenol)azo]phenyl]azo]-2-naphthalenol]",3
2,"Cc1ccccc1N=Nc1cc(C)c(N=Nc2c(O)ccc3ccccc23)cc1C [Example 1H, 1-[[2,5-dimethyl-4-[(2-methylphenol)azo]phenyl]azo]-2-naphthalenol]",3
3,"CC1(C)Nc2cccc3c(N=Nc4ccc(N=Nc5ccccc5)c5ccccc45)ccc(c23)N1 [Example 1M, 2,3-dihydro-2,2-dimethyl-6-[[4-(phenylazo)-1-naphthalenyl]azo]-1H-perimidine]",3
4,"COc1ccc(C=C(C(=O)OC2CC(C)(C)N(C)C(C)(C)C2)C(=O)OC2CC(C)(C)N(C)C(C)(C)C2)cc1 [Example 1R, propanedioic acid, [(4-methoxy-phenyl)-methylene]-, bis(1,2,2,6,6-pentamethyl-4-piperidinyl)ester]",3
5,"Nc1ccc(N=Nc2ccc([N+](=O)[O-])cc2)cc1 [Example 1G, 4-[(4-nitrophenyl)azo]-benzenamine]",3
6,"Cc1ccccc1N=Nc1c(O)ccc2ccccc12 [Example 1J, 1-(ortho-tolylazo)-2-naphthol]",3
7,"O=[N+]([O-])c1ccc(N=Nc2ccc(Nc3ccccc3)cc2)cc1 [Example 1D, 4-[(4-nitrophenyl)azo]-N-phenyl-benzenamine]",3
8,"Nc1c(S(=O)(=O)[O-])cc(Nc2ccccc2)c2c1C(=O)c1ccccc1C2=O.[Na+] [Example 1A, monosodium 1-amino-9,10-dihydro-9,10-dioxo-4-(phenylamino)-2-anthracenesulfonate]",3
9,"CC(C)Nc1ccc(NC(C)C)c2c1C(=O)c1ccccc1C2=O [Example 1B, 1,4-bis[(1-methylethyl)amino]-9,10-anthracenedione]",3
10,"Oc1ccc2ccccc2c1N=Nc1ccccc1 [Example 1N, 1-(phenylazo)-2-naphthalenol]",3
11,"Cc1cc(S(=O)(=O)[O-])ccc1N=Nc1c(O)ccc2ccccc12.[Na+] [Example 1C, monosodium 4-[(2-hydroxy-1-naphthalenyl)azo]-3-methyl-benzenesulfonate]",3
12,Oc1ccc2ccccc2c1N=Nc1ccc(N=Nc2ccccc2)cc1 [Example 1K],3
13,"CC(C)(C)CC(C)(C)c1ccc([O-])c(Sc2cc(C(C)(C)CC(C)(C)C)ccc2[O-])c1.CCCCN.[Ni+2] [Example 1S, 2,2′-thiobis[4-t-octylphenolato]-beta-butylamine nickel (II)]",3
14,"CCN(CCC#N)c1ccc(N=Nc2ccc([N+](=O)[O-])cc2)cc1 [Example 1F, 3-[ethyl[4-[(4-nitrophenyl)azo]phenyl]amino]-propanenitrile]",3
15,"Oc1ccc(N=Nc2ccc(N=Nc3ccccc3)c3ccccc23)cc1 [Example 1E, 4-[[4-(phenylazo)-1-naphthalenyl]azo]-phenol]",3
16,1-[[4-[(dimethylphenyl)azo]dimethylphenyl]azo]-2-naphthalenol [Example 1I],3
